Biological target: T1, CgFMNAT (Nakaseomyces glabratus, UniProt Q6FNA9)
T1 sequence (Q6FNA9 1-304): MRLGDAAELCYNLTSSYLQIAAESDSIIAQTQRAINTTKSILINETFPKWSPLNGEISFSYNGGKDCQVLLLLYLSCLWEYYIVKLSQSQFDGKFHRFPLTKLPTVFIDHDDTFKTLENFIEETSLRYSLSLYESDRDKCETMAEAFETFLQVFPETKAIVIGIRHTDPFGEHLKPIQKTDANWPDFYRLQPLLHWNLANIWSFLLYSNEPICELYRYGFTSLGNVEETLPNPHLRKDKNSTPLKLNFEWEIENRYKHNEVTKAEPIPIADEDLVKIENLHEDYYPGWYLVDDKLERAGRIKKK

## O=P(O)(O)OP(=O)(O)O [pyrophosphate]
  X-ray crystal structure of product ternary complex (1.35 Å): the densities for both products FAD and pyrophosphate (PPi) are well defined

Source: paper PMC2928223 (Journal of molecular biology, 2009)
